Laboratory results: publication PMC9309159, “Identification of heptapeptides targeting a lethal bacterial strain in septic mice through an integrative approach” (Signal Transduction and Targeted Therapy, 2022)

Assays:
[1] = test system: Pseudomonas aeruginosa (ATCC27853); experiment: Growth of Pseudomonas aeruginosa; assay type: cell-based; details: peptide 1 μmol/L, 37°C, 3 hours, colony count, n=3
Experimental: (§1) Pseudomonas aeruginosa (ATCC27853) was purchased from American Type Culture Collection (ATCC) and cultured in Luria Broth (LB) medium with shaking at 37 °C. For construction of ampicillin-resistant MSI001 strain (MSI001-Amp^r), the pET14b plasmid carrying Amp^r marker gene was introduced into the wild type MSI001 strain. The MSI001-Amp^r strain was cultured in LB medium supplemented with Ampicillin of 100 µg/ml at 37 °C.
(§2) Figure S4. Inhibitory effect of LL37 and VTK-LL37 fusion peptides on bacterial growth. a Effect of VTK-LL37 on the growth of Ampicillin resistant (Amp^r) MSI001 bacteria. The bacterial strain MSI001 was transfected with pET14b plasmid to produce an Ampicillin resistant (Amp^r) MSI001 strain. The VTK-LL37 or LL37 peptide was added to the cultured MSI001-Amp^r bacteria (1×10^3 CFU/ml) with a final concentration of 1 μmol/L. After incubation with the VTK-LL37 or LL37 peptides at 37°C for 3 hours, bacterial colonies were counted. b Effect of VTK-LL37 on the growth of Pseudomonas aeruginosa. The bacterial colonies of Pseudomonas aeruginosa were counted as above. […]

MSI001-Amp^r bacteria = experiment: Growth of ampicillin-resistant MSI001 bacteria; assay type: cell-based, Escherichia coli; details: 1×10^3 CFU/ml, peptide 1 μmol/L, 37°C, 3 hours, colony count, n=3
Experimental: as §1, §2

E. coli MSI001 = experiment: In vivo antibacterial assay (blood CFU); design: species or system C57BL/6 mice; details: MSI001 6 × 10^6 CFU/g i.p.; peptide 0.2 nmol/g tail vein 1 h later; blood CFU at 12 h; n = 8
Text: (§3) Wild-type C57 mice were intraperitoneally injected with MSI001 bacteria (6 × 10^6 CFU/g body weight) to reproduce a sepsis model. […] Normal saline (NS) was used as control. […] One hour after CLP modeling, the mice were intravenously injected with LL37 or VTK-LL37 peptide at a dosage of 0.2 nmol/g body weight. Equal volume of normal saline (NS) was used as control. […] The mice were intraperitoneally injected with MSI001 bacteria. One hour later, the mice were subjected to tail vein injection (TVI) with VTK-LL37 (VTK-LL37 group), LL37 (LL37 group) or an equivalent volume of NS (sepsis group). Wild-type mice without modeling were used as controls (control group). The blood bacteria were quantitated as colony forming units (CFU) 12 h after injection of bacteria. n = 8. *P < 0.05, compared to control; ^#P < 0.05, compared to sepsis group^; ΔP < 0.05, compared to LL37 group. Results are expressed as the median with range. d Suppression of VTK-LL37 on the production of HMGB1 in the blood of septic mice. […] Twelve hours after bacterial injection, HMGB1 in the serum was quantitated by ELISA. n = 8. *P < 0.05, compared to control; ^#P < 0.05, compared to sepsis group; ^ΔP < 0.05, compared to LL37 group^. Results are expressed as the mean ± SD. e, f Protective effect of VTK-LL37 against organ damage in mice subjected to bacterial injection. […]

[2] = test system: liver, kidney, heart and lung; experiment: Histopathological evaluation of organ injury in septic mice; assay type: in vivo, C57BL/6 mice; details: peptide i.v. 1 h after sepsis modeling; tissues at 12 h; HE staining, injury scores; n = 6
Text: as §3

CVTKLGSLCVPGVGLLGDFFRKSKEKIGKEFKRIVQRIKDFLRNLVPRTES [VTK-LL37]
inhibitory effect on growth of Pseudomonas aeruginosa [1]: showed inhibitory effect on the growth of Pseudomonas aeruginosa
inhibitive effect on growth of ampicillin-resistant MSI001 (MSI001-Amp^r bacteria): more significant inhibitive effect on the bacterial growth of the ampicillin-resistant MSI001 bacteria in comparison with LL37
suppression of bacterial growth in blood of septic mice (E. coli MSI001): stronger capability to suppress the bacterial growth of E. coli MSI001 in the blood of septic mice than LL37
sepsis-induced organ injury [2]: alleviated sepsis-induced injury to multiple organs, including the liver, lung, kidney and heart
